The text below walks through data of patent publication US20230263822A1, “MODULATION OF FACTOR 11 EXPRESSION” (Ionis Pharmaceuticals, Inc., priority 2008, published 2023).

One data set concerns human Factor 11 mRNA. Kind of data set: Dose-dependent inhibition of human Factor 11 in HepG2 cells, electroporation 375-12,000 nM (Example 32). It is filed as cell-based. The conditions noted are these: for Percent inhibition of Factor 11 mRNA at 375 nM / Percent inhibition of Factor 11 mRNA at 750 nM / IC50: electroporation; for Percent inhibition of Factor 11 mRNA at 375 nM / Percent inhibition of Factor 11 mRNA at 750 nM / Percent inhibition of Factor 11 mRNA at 1,500 nM / Percent inhibition of Factor 11 mRNA at 3,000 nM / Percent inhibition of Factor 11 mRNA at 6,000 nM / Percent inhibition of Factor 11 mRNA at 12,000 nM: approx. 16 hours, relative to untreated control cells; for Percent inhibition of Factor 11 mRNA at 1,500 nM: electroporation, 1,500 nM; for Percent inhibition of Factor 11 mRNA at 3,000 nM: electroporation, 3,000 nM; for Percent inhibition of Factor 11 mRNA at 6,000 nM: electroporation, 6,000 nM; for Percent inhibition of Factor 11 mRNA at 12,000 nM: electroporation, 12,000 nM; for IC50: Factor 11 mRNA expression. The method, then: These gapmers were tested at various doses in HepG2 cells. Cells were plated at a density of 20,000 cells per well and transfected using electroporation with 375 nM, 750 nM, 1,500 nM, 3,000 nM, 6,000 nM and 12,000 nM concentrations of antisense oligonucleotide, as specified in Table 47. After a treatment period of approximately 16 hours, RNA was isolated from the cells and Factor 11 mRNA levels were measured by quantitative real-time PCR. Human Factor 11 primer probe set RTS 2966 was used to measure mRNA levels. Factor 11 mRNA levels were adjusted according to total RNA content, as measured by RIBOGREEN. Results are presented as percent inhibition of Factor 11, relative to untreated control cells.
ISIS 416850, ISIS 416858, ISIS 445522, and ISIS 445531 (see Table 45 above) were re-tested in vitro along with the microwalk gapmers under the same conditions described above.
The first two listed gapmers in Table 47 are the original gapmers (ISIS 416850 and ISIS 416858) from which the remaining gapmers were designed via microwalk and are designated by an asterisk.

A further data set concerns Factor 11 mRNA. Kind of data set: Factor 11 mRNA in cynomolgus monkey liver, day 55 (Example 46). It is filed as in vivo, cynomolgus monkeys. The conditions noted are these: 25 mg/kg subcutaneously, primer probe set LTS00301. The method, then:
(§1) Groups, each consisting of two male and two female monkeys, were injected subcutaneously with 25 mg/kg of ISIS 416850, ISIS 449709, ISIS 445522, ISIS 449710, ISIS 449707, ISIS 449711, ISIS 449708, 416858, and ISIS 445531. Antisense oligonucleotide was administered to the monkeys at 25 mg/kg three times per week for week 1 and 25 mg/kg twice per week for weeks 2 to 8. A control group, consisting of two male and two female monkeys was injected subcutaneously with PBS according to the same dosing regimen. Body weights were taken 14 days and 7 days before the start of treatment and were then measured weekly throughout the treatment period. Blood samples were collected 14 days and 5 days before the start of treatment and subsequently several times during the dosing regimen for PT and aPTT measurements, and measurement of various hematologic factors. On day 55, the monkeys were euthanized by exsanguination while under deep anesthesia, and organs harvested for further analysis.
On day 55, RNA was extracted from liver tissue for real-time PCR analysis of Factor 11 using primer probe set LTS00301. Results are presented as percent inhibition of Factor 11, relative to PBS control.

A further data set has as its system Factor 11 protein. In words: Factor 11 protein in monkey plasma by sandwich ELISA (Example 46). The conditions noted are these: 25 mg/kg subcutaneously. The class given is in vivo, cynomolgus monkeys. As to the method:
as §1
Plasma samples from all monkey groups taken on different days were analyzed by a sandwich-style ELISA assay (Affinity Biologicals Inc.) using an affinity-purified polyclonal anti-Factor 11 antibody as the capture antibody and a peroxidase-conjugated polyclonal anti-Factor 11 antibody as the detecting antibody. Monkey plasma was diluted 1:50 for the assay. Peroxidase activity was expressed by incubation with the substrate o-phenylenediamine. The color produced was quantified using a microplate reader at 490 nm and was considered to be proportional to the concentration of Factor 11 in the samples.
The results are presented in Table 147, expressed as percentage reduction relative to that of the PBS control.
(In general: In an ELISA, binding on a coated surface is turned into a signal by an enzyme label.)

Data set [1] can be described thus: Viscosity of ISIS antisense oligonucleotides, micro-viscometer at 25 °C (Example 47). The class given is physicochemical. Conditions: for Concentration: concentration of the viscosity sample, UV reading at 260 nM at 85° C.; for Viscosity: in water, micro-viscometer at 25° C., at the concentration of the same line. As to the method:
The viscosity of antisense oligonucleotides targeting human Factor 11 was measured with the aim of screening out antisense oligonucleotides which have a viscosity more than 40 cP at a concentration of 165-185 mg/mL.
ISIS oligonucleotides (32-35 mg) were weighed into a glass vial, 120 μL of water was added and the antisense oligonucleotide was dissolved into solution by heating the vial at 50° C. Part of (75 μL) the pre-heated sample was pipetted to a micro-viscometer (Cambridge). The temperature of the micro-viscometter was set to 25° C. and the viscosity of the sample was measured. Another part (20 μL) of the pre-heated sample was pipetted into 10 mL of water for UV reading at 260 nM at 85° C. (Cary UV instrument).

For data set [2] the following is noted: mouse, in vivo, sc, 50 mg/kg.
The conditions of data set [3]: mouse, in vivo, sc, 50 mg/kg. The source holds these as a separate data set.
For data set [4] the following is noted: mouse, in vivo, sc, 50 mg/kg. This is another data set of the same source.
The conditions of data set [5]: rat, in vivo, sc, 50 mg/kg.
The conditions of data set [6]: rat, in vivo, sc, 50 mg/kg. This is another data set of the same source.
For data set [7] the following is noted: rat, in vivo, sc, 50 mg/kg. The source holds these as a separate data set.

Like-named read-outs stand apart in the source and are kept apart here. Strand notation (5' to 3'): a small letter for the sugar, then the base; units joined by * are phosphorothioate-linked, units joined directly phosphodiester-linked; [ ] holds rarer units or linkages, { } end groups; capitals alone tell only the bases. e = 2'-O-(2-methoxyethyl) (MOE); [5mC] = 5-methylcytosine; d = 2'-deoxy (DNA)

As to “449707 (antisense e[5mC]*eA*e[5mC]*eA*dG*dT*dT*dT*d[5mC]*dT*dG*dG*e[5mC]*eA*eG*eG) [compound 449707]”, the “Percent inhibition of Factor 11 mRNA at 375 nM” value (“Percent inhibition … at 375 nM” for short) with human Factor 11 mRNA amounted to 7%. Also, the “Percent inhibition of Factor 11 mRNA at 750 nM” value (shortened to “Percent inhibition … at 750 nM”) in the data set on human Factor 11 mRNA was determined as 35%. Also, the “Percent inhibition of Factor 11 mRNA at 1,500 nM” value (“Percent inhibition … at 1,500 nM” below) in the data set with human Factor 11 mRNA is listed as 63%. In addition, in the data set with human Factor 11 mRNA, the “Percent inhibition of Factor 11 mRNA at 3,000 nM” value (“Percent inhibition … at 3,000 nM” below) is 73%. In addition, in the data set with human Factor 11 mRNA, the “Percent inhibition of Factor 11 mRNA at 6,000 nM” value (“Percent inhibition … at 6,000 nM” below) was 85%. In the data set on human Factor 11 mRNA, the “Percent inhibition of Factor 11 mRNA at 12,000 nM” value (“Percent inhibition … at 12,000 nM” below) is 91%. The IC50 (as a rule, the midpoint of a concentration-inhibition curve) with human Factor 11 mRNA turned out to be 1260 nM. In addition, in the data set on Factor 11 mRNA, the “% inhibition of Factor 11 mRNA in liver relative to the PBS control” value was found to be 47%. For the same substance, the “Inhibition of Factor 11 protein relative to the PBS control (percentage reduction)” value came to 16% with Factor 11 protein (Day 10, plasma); 19% in the data set with Factor 11 protein (Day 17, plasma); 21% with Factor 11 protein (Day 24, plasma); 29% in the data set with Factor 11 protein (Day 31, plasma); 28% with Factor 11 protein (Day 38, plasma); 35% with Factor 11 protein (Day 45, plasma). In addition, the “Inhibition of Factor 11 protein relative to the PBS control (percentage reduction)” value came out at 29% with Factor 11 protein (Day 52, plasma); 32% in the data set on Factor 11 protein (Day 55, plasma); 0% in the data set on Factor 11 protein (Day −5, plasma); 0% in the data set with Factor 11 protein (Day −14, plasma). The same substance registered a Concentration in data set [1] of 166 mg/mL. Besides, the Viscosity in data set [1] is on record as 7 cP.
Turning to “449708 (antisense eA*e[5mC]*eA*dG*dT*dT*dT*d[5mC]*dT*dG*dG*e[5mC]*eA*eG) [compound 449708]”, the “Percent inhibition … at 375 nM” value in the data set on human Factor 11 mRNA is reported as 0%. Moreover, in the data set on human Factor 11 mRNA, the “Percent inhibition … at 750 nM” value is on record as 0%. Also, in the data set on human Factor 11 mRNA, the “Percent inhibition … at 1,500 nM” value is 22%. Besides, the “Percent inhibition … at 3,000 nM” value in the data set on human Factor 11 mRNA was 33%. Further, in the data set with human Factor 11 mRNA, the “Percent inhibition … at 6,000 nM” value is recorded as 61%. The “Percent inhibition … at 12,000 nM” value in the data set on human Factor 11 mRNA came out at 85%. Besides, the IC50 with human Factor 11 mRNA is 4460 nM. Further, the “% inhibition of Factor 11 mRNA in liver relative to the PBS control” value in the data set on Factor 11 mRNA amounted to 46%. For the same substance, the “Inhibition of Factor 11 protein relative to the PBS control (percentage reduction)” value in the data set with Factor 11 protein (Day 10, plasma) amounted to 7%; with Factor 11 protein (Day 17, plasma) it was 15%; in the data set with Factor 11 protein (Day 24, plasma), 3%; with Factor 11 protein (Day 31, plasma), 14%; in the data set on Factor 11 protein (Day 38, plasma), 9%; in the data set with Factor 11 protein (Day 45, plasma) it was 2%. The “Inhibition of Factor 11 protein relative to the PBS control (percentage reduction)” value in the data set on Factor 11 protein (Day 52, plasma) is 6%; with Factor 11 protein (Day 55, plasma), 6%; in the data set with Factor 11 protein (Day −5, plasma) it was 0%; in the data set on Factor 11 protein (Day −14, plasma), 1%. Also, the Concentration in data set [1] is 188 mg/mL. For the same substance, the Viscosity in [1] stood at 9 cP.
In the case of “449709 (antisense eG*e[5mC]*eA*e[5mC]*dA*dG*dT*dT*dT*d[5mC]*dT*dG*dG*d[5mC]*eA*eG*eG*e[5mC]) [compound 449709]”, the “Percent inhibition … at 375 nM” value in the data set with human Factor 11 mRNA was determined as 52%. Also, the “Percent inhibition … at 750 nM” value with human Factor 11 mRNA is on record as 71%. Further, in the data set on human Factor 11 mRNA, the “Percent inhibition … at 1,500 nM” value was found to be 80%. Further, the “Percent inhibition … at 3,000 nM” value in the data set on human Factor 11 mRNA came to 87%. The “Percent inhibition … at 6,000 nM” value in the data set with human Factor 11 mRNA amounted to 92%. Further, in the data set on human Factor 11 mRNA, the “Percent inhibition … at 12,000 nM” value came to 95%. Besides, the IC50 in the data set on human Factor 11 mRNA stood at 380 nM. The “% inhibition of Factor 11 mRNA in liver relative to the PBS control” value with Factor 11 mRNA was 69%. The “Inhibition of Factor 11 protein relative to the PBS control (percentage reduction)” value was 27% with Factor 11 protein (Day 10, plasma); 35% in the data set with Factor 11 protein (Day 17, plasma); 44% with Factor 11 protein (Day 24, plasma); 45% in the data set on Factor 11 protein (Day 31, plasma); 46% in the data set on Factor 11 protein (Day 38, plasma); 48% in the data set with Factor 11 protein (Day 45, plasma). Further, the “Inhibition of Factor 11 protein relative to the PBS control (percentage reduction)” value in the data set on Factor 11 protein (Day 52, plasma) was determined as 47%; in the data set with Factor 11 protein (Day 55, plasma) it was 50%; with Factor 11 protein (Day −5, plasma), 0%; in the data set with Factor 11 protein (Day −14, plasma), 1%. In addition, the Concentration in data set [1] was 171 mg/mL. This substance came in with a Viscosity in data set [1] of 65 cP.
In [2], “ISIS 416867: MOE gapmer, nucleobases 1275 to 1318 of SEQ ID NO: 1 (Table 8) (antisense ACTGGCAGCGGACGGCATTG; MOE gapmer, wing and gap sizes not given here)” had an ALT of 45 IU/L, an AST of 82 IU/L, a Bilirubin of 0.21 mg/dL and a Cholesterol of 144 mg/dL. In addition, the BUN in [3] was 20 mg/dL. In addition, in [4], the HCT was found to be 47%, the Lymphocyte is given as 6078 cells/μL, the Neutrophil stood at 1404 cells/μL and the Platelets is given as 1006 10^3/μL. In [4], the RBC is on record as 10 10^6/μL, the WBC was 8 10^3/μL, the hemoglobin came out at 14 g/dL and the monocytes is 188 cells/μL. In data set [5], this substance yielded an ALT of 47 IU/L, an AST of 126 IU/L, an Albumin of 4 and a Bilirubin of 0.17 mg/dL. Besides, in data set [6], the BUN was found to be 22 mg/dL, the Creatinine came to 70 mg/dL, the Total urine protein was found to be 217 mg/dL and the Urine protein/creatinine ratio was found to be 3.1. Moreover, in [7], the HCT turned out to be 45%, the Lymphocyte was determined as 10405, the Neutrophil came out at 3044 and the Platelets is listed as 705. Besides, in data set [7], the RBC was 7.8 10^6/μL, the WBC is reported as 14 10^3/μL and the hemoglobin worked out at 14.0 g/dL.
